The values below come from patent publication US20050288369A1, “Novel n-hydroxy thiourea, urea and amide compounds and the pharmaceutical compositions comprising the same” (priority 2002, published 2005).

The target of series [1] is T1, VR1 (Rattus norvegicus, UniProt O35433).
T1 construct: expressed in transfected cells; host or cells: Chinese Hamster Ovary cells (CHO, ATCC CCL-61), Tet-off inducible expression
The series can be described thus: 45Ca influx test in CHO cells expressing VR1, antagonistic activity against 50 nM capsaicin. The format is cell-based. The conditions noted are these: 45Ca uptake stimulated with 50 nM capsaicin. The method, then:
(§1) The ^45Ca Influx test by using CHO cells of the inventive compounds was measured by using Chinese Hamster Ovary (CHO, ATCC, No. CCL-61) cell whose cDNA of VR1 (pUHG102 VR1 plasmid) was transfected, which can control the expression of VR1 according to the presence of tetracycline and Tetracycline on/off system (pTet off regulatory plasmid, Clontech. Inc., USA) that the expression of VR1 is induced by removing tetracycline from the medium.
(§2) The CHO cells were poured onto 24 well plates to the extent that its density reaches at 30% and incubated for 24 hours at 37° C. The culture medium was exchanged to tetracycline free medium to induce the expression of VR1 and tested after 36 hours.
(§3) Together with 0.25 mg/ml BSA (Sigma A2153, USA), 1 Ci/ml ^45Ca(5-30 Ci/g used, ICN. Co., 62005 RT, U.S.A.), the test samples with increasing concentrations were added to each well. At the quenching moment of the incubation with ^45Ca, the cultured cells were removed from the medium, washed three times with cool PBS buffer solution containing 1.8 mM CaCl2 and 400 μl of RIPA buffer solution (50 mM Tris pH 7.4; 150 mM sodium chloride; 0.1% SDS; 1% sodium deoxycholate), was added in each well to homogenize the cells. The plates were stirred for 20 minutes slowly and 300 μl of cell lysate was transferred to scintillation vials from each wells. The radioactivity was determined by scintillation counter.
(§4) The data were assessed by determining four wells per each data point in each experiment and analyzed in computer by being transformed into Hill equation. The experiments were determined in triplicate in each sample comprising inventive compounds and control groups.
In order to determine the antagonistic activity, ^45Ca^2+-uptake stimulating-mixture was added with 50 nM capsaicin and the antagonistic activity was determined by the method for the agonistic activity. In case that 10 μM a certain compound cannot change the capsaicin-inducing activity, the compound shall be regarded as an […].

A further series concerns Male ICR mice. The series can be described thus: Acetic acid-induced writhing test. The format is in vivo. The conditions noted are these: for ED50: Mus musculus, ip, i.p. 30 mins before 1.2% acetic acid i.p., 50% reduction of the number of writhes; for analgesic effect compared with thiourea compounds JYL-827 and 1433: writhing test. The method, then:
The acetic acid-induced writhing test for testing the analgesic activity of inventive compounds prepared from above Examples was performed by the procedure described in the literature (Lee, J. W., Bioorganic & Medicinal Chemistry, pp 1713-1720, 2001).
Male ICR mice having its mean body weight of 25 g (CD-1; Biogenomics Co. Korea) were reared in lighting controlled environment (12 hrs on/12 hrs off) maintaining with temperatures at 22±2° C. and humidity at 50±5% and allowed to eat a diet and to drink tap water ad lib.
Mice were fasted overnight prior to testing and adopted to the environment.
0.3 ml of acetic acid solution (1.2%) was administrated in the mice intraperitoneally and then the mice were put into the transparent acryl box (15×15×15 cm). 5 minutes later, the number of abdominal constrictions was counted for 20 minutes. Each group consisting of ten mice was pretreated with test compounds or solvent (0.2 ml, i.p.) 30 mins before the injection of acetic acid. Test compounds were dissolved in the mixture of ethanol/Tween-80/saline ([…]) or cremophor EL/DMSO/d-water ([…]).
Analgesic activity of each drug was determined at several different concentrations.
The index of analgesic activity (eff) was defined as below Empirical formula 1. Analgesic activity (eff)=100−{(No. of abdominal constriction of test group/No. of abdominal constriction of control group)×100} [Empirical formula 1]
Analgesic activity was expressed as the reduction in the number of abdominal constrictions, of control animals (vehicle-pretreated mice) and animals pretreated with test compounds.
A general note: Writhing tests count abdominal constrictions after an irritant is injected.

For series [2], the target named is T2, vanilloid receptor-1 (VR1) (Rattus norvegicus, UniProt O35433).
T2 construct: expressed in transfected cells; host or cells: Chinese Hamster Ovary cells (CHO, ATCC CCL-61), Tet-off inducible expression
T2 sequence (O35433 whole entry): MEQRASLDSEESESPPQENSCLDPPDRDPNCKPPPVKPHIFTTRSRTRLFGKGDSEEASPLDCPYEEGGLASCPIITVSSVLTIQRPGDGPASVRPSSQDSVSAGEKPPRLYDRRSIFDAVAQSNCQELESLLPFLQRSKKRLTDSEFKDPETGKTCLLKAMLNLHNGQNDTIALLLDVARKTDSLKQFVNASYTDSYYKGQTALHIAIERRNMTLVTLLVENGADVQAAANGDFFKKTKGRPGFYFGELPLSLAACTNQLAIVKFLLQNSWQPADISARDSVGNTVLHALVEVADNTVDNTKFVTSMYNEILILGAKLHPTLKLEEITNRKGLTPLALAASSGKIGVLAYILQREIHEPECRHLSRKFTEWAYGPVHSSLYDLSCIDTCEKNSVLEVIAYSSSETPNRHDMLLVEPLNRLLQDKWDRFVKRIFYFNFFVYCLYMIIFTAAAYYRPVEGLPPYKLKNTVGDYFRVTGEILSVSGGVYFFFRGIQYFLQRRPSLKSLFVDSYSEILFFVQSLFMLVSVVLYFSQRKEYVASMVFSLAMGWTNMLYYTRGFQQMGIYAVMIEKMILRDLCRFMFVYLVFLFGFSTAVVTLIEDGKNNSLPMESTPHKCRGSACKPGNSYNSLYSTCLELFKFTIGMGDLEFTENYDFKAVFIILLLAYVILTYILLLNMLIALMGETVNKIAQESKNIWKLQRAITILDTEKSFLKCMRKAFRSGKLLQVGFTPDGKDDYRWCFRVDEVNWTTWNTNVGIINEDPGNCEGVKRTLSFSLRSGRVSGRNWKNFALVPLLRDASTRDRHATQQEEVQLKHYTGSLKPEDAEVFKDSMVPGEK
The series can be described thus: [3H]RTX competition binding assay, VR1-expressing CHO cells. As to conditions: displacement of bound [3H]RTX; mean±SEM, 3 experiments. On the procedure: The binding affinity activity of the target compounds for vanilloid receptor-1 was measured by an in vitro receptor binding affinity assay. In the receptor binding assay, the compounds were evaluated for their ability to displace bound [^3H]RTX from the receptor. The results are expressed in terms of Ki values (mean±SEM, 3 experiments) which represent the concentration of the non-radioactive ligand that displaces half of the bound labeled RTX.
The VR receptor binding affinity activity of the inventive compounds was measured by using Chinese Hamster Ovary (CHO, ATCC, No. CCL-61) cell whose cDNA of VR1 (pUHG102 VR1 plasmid) was transfected, which can control the expression of VR1 according to the presence of tetracycline and Tetracycline on/off system (pTet off regulatory plasmid, Clontech. Inc., USA) that the expression of VR1 is induced by removing tetracycline from the medium. […] The cells were cultured after removing tetracycline prior to 48 hours. The tetracycline free culture medium was seeded at the bottom of T75 flask, incubated to the extent that its density reaches at 90%, and washed once with PBS buffer solution. The cells were collected by using saline solution containing 5 mM EDTA and subjected to centrifugation slightly to obtain precipitates, further, which had been kept at the temperature of −20° C. before use.
Experiments were designed to assess inhibition of specific [^3H]RTX binding to membranes by non-radioactive compounds. The binding assay mixture containing [^3H]RTX ([…]), various concentrations of competitive binding substances, 0.25 mg/ml of BSA (Cohn fraction V), 5×10^4 ˜5×10^5 numbers of VR1 and the expression cell, was admixed with saline solution containing 450 μl of Ca^2+ and Mg^2+ and […] of BSA. Non-specific binding assay was measured after mixing 100 nM of non-radioactive RTX thereto. The reaction mixture was treated for 60 min at 37° C. and the reaction was quenched by cooling over ice. RTX bound to the membrane of VR1 was subjected to centrifugation with maximum velocity for 15 minutes to precipitate its membrane residue, which results in separating from non-binding RTX. The tips of tube containing above precipitate was cut off and the amount of bound radioisotope was determined by scintillation counter (LS6500, Beckman-Coulter, USA). The measurement of binding was determined in triplicate in each experiment, and each experiment was repeated at least two times. Binding data were analyzed by fitting to the Hill equation and the Ki (equilibrium binding parameter) index, the Bmax (maximum binding parameter) index, and the cooperativity index etc., were determined by using origin 6.0 program (Origin, MicroCal Co., USA).
An initial compound was dissolved in DMSO (dimethyl sulfoxide) and diluted with saline solution containing Ca^2+ and […], and […] of BSA.

Series [3] deals with T1, VR1. The series is described as follows: 45Ca influx test in CHO cells expressing VR1, agonistic activity. The format is cell-based. The conditions noted are these: 45Ca uptake. The method, then: The ^45Ca Influx test by using CHO cells expressing VR1 was performed by the procedure described in the literature (Lee, J. W., Bioorganic & Medicinal Chemistry, pp 1713-1720, 2001).
as §1, §2
as §3, with “In radioactive ^45Ca uptake experiment, The cells were incubated in […] of DMEM medium (Dulbecco's modified Eagles medium: Gibco-BRL, 31600-083) containing free of serum and 1.8 mM CaCl2 for 10 minutes at 37*C. Together” for “Together”
as §4

T1 sequence (O35433 whole entry): as above

`CC(C)(C)c1ccc(CN(O)C(=S)NCc2ccc(NS(C)(=O)=O)cc2)cc1` [Compound 28, N-(4-tert-butylbenzyl)-N-hydroxy-N-[4-(methylsulfonylamino)benzyl]thiourea] had a melting point of 137 °C. In addition, at VR1 [1], 470 nM corresponded to half-maximal inhibition (IC50). Also, in the series on Male ICR mice, it took a dose of 1560 µg/kg to reach the 50% effect level (ED50). In addition, in series [2], affinity was put at a Ki of 1090 nM.

Take `COc1cc(CNC(=S)N(O)Cc2ccc(C(C)(C)C)cc2)ccc1NS(C)(=O)=O` [Compound 29, N-(4-tert-butylbenzyl)-N-hydroxy-N-[3-methoxy-4-(methylsulfonylamino)benzyl]thiourea]: the melting point lay in the range of 112.5 to 115 °C. The molecule also showed an EC50 at VR1 [3] of 2010 nM. Moreover, the ED50 in the series on Male ICR mice is 0.103 µg/kg.

Molecule `CC(C)(C)c1ccc(CN(O)C(=S)NCc2ccc(NS(C)(=O)=O)c(F)c2)cc1` [Compound 30, N-(4-tert-butylbenzyl)-N-hydroxy-N-[3-fluoro-4-(methylsulfonylamino)benzyl]thiourea] displayed a melting point of 124 to 126 °C. The EC50 at VR1 [3] was > 7060 nM. The same molecule showed an ED50 in the series on Male ICR mice of 1.07 µg/kg. Moreover, in series [2], the affinity, expressed as Ki, was 802 nM.

For `Cc1ccc(CC(COC(=O)C(C)(C)C)CN(O)C(=S)NCc2ccc(NS(C)(=O)=O)cc2)cc1C` (centres unmarked) [Compound 35, N-[2-(3,4-dimethylbenzyl)-3-(pivaloyloxy)propyl]-N-hydroxy-N-[4-(methylsulfonylamino)benzyl]thiourea], at VR1 [3], the concentration giving a half-maximal response (EC50) came to 1230 nM. For the same molecule, it took 212 nM to reach half-maximal inhibition at VR1 [1] (IC50). Besides, in the series with Male ICR mice, the ED50 stood at 2.6 µg/kg; the “analgesic effect compared with thiourea compounds JYL-827 and 1433” value is listed as “stronger analgesic effect”. In series [2], the affinity, expressed as Ki, was 1040 nM.

Molecule `Cc1ccc(CC(COC(=O)C(C)(C)C)CN(O)C(=S)NCc2ccc(NS(C)(=O)=O)c(F)c2)cc1C` (centres unmarked) [Compound 37, N-[2-(3,4-dimethylbenzyl)-3-(pivaloyloxy)propyl]-N-hydroxy-N-[3-fluoro-4-(methylsulfonylamino)benzyl]thiourea] came in with an IC50 against VR1 [1] of 93.7 nM. The “analgesic effect, fold stronger than that of Ketorolac” value in the series with Male ICR mice (ratio of writhing test ED50 values) was 43,000 fold. Also, in the series with Male ICR mice, the “analgesic effect compared with thiourea compounds JYL-827 and 1433” value was “stronger analgesic effect”. Moreover, the affinity in series [2] corresponds to a Ki of 212 nM.

As to `CC(C)(C)c1ccc(CN(O)C(=O)Cc2ccc(NS(C)(=O)=O)cc2)cc1` [Compound 45, N-(4-tert-butylbenzyl)-N-hydroxy-[4-(methylsulfonylamino)phenyl] acetamide], the melting point lay in the range of 161 to 163 °C. At VR1 [3], the EC50 came out at 3500 nM. At VR1 [1], this molecule had an IC50 of 6590 nM. In series [2], this molecule showed a Ki of 6380 nM.

In turn, `CC(C)(C)c1ccc(CNC(=S)N(O)Cc2ccc(NS(C)(=O)=O)cc2)cc1` [Compound 60, N-(4-tert-butylbenzyl)-N-hydroxy-N-[4-(methylsulfonylamino)benzyl]thiourea] returned a melting point of 124 °C. The 50% inhibitory concentration (IC50) at VR1 [1] was 465 nM. The affinity in series [2], expressed as Ki, was 4260 nM.

For the molecule `Cc1ccc(CC(CNC(=S)N(O)Cc2ccc(NS(C)(=O)=O)cc2)COC(=O)C(C)(C)C)cc1C` (centres unmarked) [Compound 61, N-[2-(3,4-dimethylbenzyl)-3-(pivaloyloxy)propyl]-N-hydroxy-N-[4-(methylsulfonylamino)benzyl]thiourea], the “EC50 (nM) (VR1/CHO)” value at VR1 [3] is reported as “Weak”. Also, the “IC50 (nM) (VR1/CHO)” value on VR1 [1] is listed as “Weak”. The molecule further yielded a Ki in series [2] of 481 nM.

As to `CC(C)(C)c1ccc(CNC(=O)N(O)Cc2ccc(NS(C)(=O)=O)cc2)cc1` [Compound 62, N-(4-tert-butylbenzyl)-N-hydroxy-N-[4-(methylsulfonylamino)benzyl]urea], the melting point came out at 125 °C. The EC50 at VR1 [3] stood at 1060 nM.

Broadly, the IC50 is the concentration that inhibits the measured activity by half. A low value points to greater potency. The term ED50 denotes the midpoint of the dose-response relation. Low values mean greater potency, high ones weaker potency. What is called Ki is the equilibrium dissociation constant of an inhibitor or competing ligand from its target. Higher therefore signals lower affinity. The melting point is the temperature of the solid-liquid transition. The term EC50 denotes the concentration at which the effect is half-maximal. Low values mean an effect from little substance, high ones a need for much substance.
